Assays:
Format in all cases: cell-based
[1] = system: pancreatic beta cells, INS-1; test: Nitrite production inhibition (Greiss colorimetric technique) in cytokine-stimulated INS-1 cells; settings: for % of reduction in nitrite production: cytokine cocktail 10 ng·mL^−1, compound 10 μM; for Nitrite production, LPS or cytokines + Compound (10 μM): cytokine cocktail (TNFα, IL1β, IFNγ, TFGβ) 10 ng·mL^−1, compound 10 μM, baseline = 1
Experimental: (§1) Anti-inflammatory activity was measured on Bv.2 microglial cell line (innate immune system of the central nervous system), macrophages, Raw 264.7 cell line (peripheral immune system), renal tubular cell lines, MCT (renal tubule epithelials) and pancreatic beta cells, INS-1 (insulin-producing cells targeted in the process leading to diabetes mellitus). […] The activation of the inflammatory process induces the secretion of nitrites (NO2) into the medium, so the induction and modulation of the inflammatory response by 3-(4,5-dihydroxy-2-(2-ethylthio)ethylphenyl)phthalide and 3-(2,4-dihydroxyphenyl)phthalide can be determined by means of the Greiss colorimetric technique.
(§2) Tables 1 and 2 show the results of the nitrite production inhibitory activity caused by compounds II and III (10 μM), respectively, on LPS-stimulated Bv2 and Raw264.7 cell lines and on cytokine-stimulated MCT and INS-1 cell lines.

[2] = system: Bv.2, Raw 264.7, MCT and INS-1 cell lines; test: Cytotoxic effect in treated cell lines; settings: any of the treated cell lines
[3] = system: renal tubular cell lines, MCT; test: Nitrite production inhibition (Greiss colorimetric technique) in cytokine-stimulated MCT cells; settings: for % of reduction in nitrite production: cytokine cocktail 10 ng·mL^−1, compound 10 μM; for Nitrite production, LPS or cytokines + Compound (10 μM): cytokine cocktail (TNFα, IL1β, IFNγ, TFGβ) 10 ng·mL^−1, compound 10 μM, baseline = 1.00
Experimental: as §1, §2

[4] = system: macrophages, Raw 264.7 cell line; test: Nitrite production inhibition (Greiss colorimetric technique) in LPS-stimulated Raw 264.7 cells; settings: LPS 2 μg·mL^−1, compound 10 μM; for Nitrite production, LPS or cytokines + Compound (10 μM): baseline = 1.00
Experimental: as §1, §2

[5] = system: Bv.2 microglial cell line; test: Nitrite production inhibition (Greiss colorimetric technique) in LPS-stimulated Bv.2 cells; settings: LPS 2 μg·mL^−1, compound 10 μM; for Nitrite production, LPS or cytokines + Compound (10 μM): baseline = 1.00
Experimental: as §1, §2

Nos2 [6] = test: Nos2 expression inhibition (qPCR) in retinal explants from BB rat; settings: retinal explant, 20 μM for 24 h
Experimental: (§3) Anti-inflammatory activity was determined using organotypic cultures or retinal and kidney explants from a murine model which develops type 1 or autoimmune diabetes mellitus spontaneously, i.e., BioBreeding (BB) rat. This animal model of type 1 diabetes mellitus reproduces disease progression in a manner similar to that occurring in patients. Tissues, retina, and kidney are extracted, maintaining cytoarchitecture and tissue connections of each of the organs, from BB rats that are 7 weeks old, which is the time before the presence of constant hyperglycemia, which appears around weeks 9-11 of life. A prediabetic model with active inflammatory parameters that resemble those occurring during the progression of type 1 diabetes mellitus in patients is thereby obtained. The cultured explants were treated with 3-(2,4-dihydroxyphenyl)phthalide (compound III) at a dose of 20 μM for 24 h.
(§4) Activation of the inflammatory process induces nitric oxide synthase, Nos2, gene expression, with messenger RNA quantification being determined by means of the quantitative PCR technique (qPCR), and can show inflammatory response modulation in retinal and kidney explants from an animal model with type 1 or autoimmune diabetes mellitus.

Nos2 [7] = test: Nos2 expression inhibition (qPCR) in kidney explants from BB rat; settings: kidney explant, 20 μM for 24 h
Experimental: as §3, §4

[8] = 7 weeks old BB rat, untreated BB rat = 1.00

| Compound | % of reduction in nitrite production [1] [%] | Nitrite production, LPS or cytokines + Compound (10 μM) [1] | cytotoxic effect ([2]; increasing doses for 24 h until the maximum concentration of 25 μM) | % of reduction in nitrite production [3] [%] | Nitrite production, LPS or cytokines + Compound (10 μM) [3] | % of reduction in nitrite production [4] [%] | Nitrite production, LPS or cytokines + Compound (10 μM) [4] | % of reduction in nitrite production [5] [%] | Nitrite production, LPS or cytokines + Compound (10 μM) [5] | Nos2 expression, BB rat + 3-(2,4-dihydroxyphenyl)phthalide (20 μM) (Nos2 [6]; [8]) | % of reduction of Nos2 expression (Nos2 [6]; BB rat) [%] | cytotoxic effect ([2]; increasing doses for 24 h until the maximum concentration of 50 μM) | Nos2 expression, BB rat + 3-(2,4-dihydroxyphenyl)phthalide (20 μM) (Nos2 [7]; [8]) | % of reduction of Nos2 expression (Nos2 [7]; BB rat) [%] |
| --- | --- | --- | --- | --- | --- | --- | --- | --- | --- | --- | --- | --- | --- | --- |
| CCSCCc1cc(O)c(O)cc1C1OC(=O)c2ccccc21 (stereo not shown) [Compound II, 3-(4,5-dihydroxy-2-(2-ethylthio)ethylphenyl)phthalide] | 18.82 | 3.644 ± 0.004 | no cytotoxic effect was detected | 77.91 | 1.788 ± 0.29 | 79.88 | 1.38 ± 0.43 | 48.31 | 1.98 ± 0.203 | – | – | – | – | – |
| O=C1OC(c2ccc(O)cc2O)c2ccccc21 (stereo not shown) [Compound III, 3-(2,4-dihydroxyphenyl)phthalide] | 65.32 | 1.48 ± 0.02 | – | 83.14 | 1.53 ± 0.06 | 33.38 | 3.60 ± 0.42 | 62.92 | 3.47 ± 0.27 | 0.482 ± 0.05 | 51.8 | no cytotoxic effect was detected | 0.348 ± 0.05 | 65.2 |

Reference: US20250011295A1, “USE OF 3-ARYLPHTHALIDES AND DERIVATIVES THEREOF AS ANTI-INFLAMMATORY AGENTS” (UNIVERSIDAD DE CÁDIZ, priority 2021, published 2025)
